Measurements published in ChEMBL document CHEMBL1158201, “Barbamide, a chlorinated metabolite with molluscicidal activity from the Caribbean cyanobacterium Lyngbya majuscula” (J Nat Prod, 1996).
≈ marks a conversion by molar mass, not a printed value.

Tests used:
Type in all cases: organism-based
Conditions in all cases: in vivo
[1] = Ichthyotoxicity in Carassius auratus
[2] = Toxicity in Artemia salina
[3] = test system: Biomphalaria glabrata; experiment: Molluscicidal activity against Biomphalaria glabrata after 24 hrs

| Structure (SMILES) | LC50 [1] [µg/mL] | further results |
| --- | --- | --- |
| C=C(CCNC(=O)CC/C=C/C[C@H](CCCCCCC)OC)[C@@]12O[C@@H]1CC=C(C)C2=O [MALYNGAMIDE H] | 5 (≈ 11.6 µM) |  |
| C=CC[C@@H](CC/C(C)=C/C=C/CC/C=C\[C@@H]1CSC([C@@H]2C[C@@H]2C)=N1)OC [CURACIN A] |  | LC50 [2]: 0.0025 µg/mL (≈ 0.00669 µM) |
| C=C1CC(=O)N[C@@H](C)C(=O)N(C)[C@@H](C(C)C)C(=O)NCC(=O)O[C@@H](/C(C)=C/C(C)=C/C(C)(C)C)[C@@H]1C [ANTILLATOXIN] | 0.05 (≈ 0.0993 µM) |  |
| CO/C(=C/C(=O)N(C)C(Cc1ccccc1)c1nccs1)CC(C)C(Cl)(Cl)Cl (centres undefined) [BARBAMIDE] |  | LC100 [3]: 100 µg/mL |
